From article PMC12543283, “TastepepAI: An artificial intelligence platform for taste peptide de novo design” (PLOS Computational Biology, 2025)
Ends that are not written are not given here.

Legend:
[1] = tested on: human bronchial epithelial cells (BEAS-2B)
[2] = Electronic tongue analysis (Taste-Sensing System SA 402B); set-up: unit not given here; details: reference solution 30 mM KCl + 0.3 mM tartaric acid as baseline, first measurement excluded; for Umami: sensor AAE; for Umami / Bitter / Sweet: detection threshold 0, room temperature; for Umami / Bitter / Sour / Salty: four replicates; for Sour: detection threshold -13, room temperature; for Salty: detection threshold -6, room temperature; for Sweet: measured five times
Protocol: Taste characteristics were analyzed using the electronic tongue system E-tongue (Taste-Sensing System SA 402B, Intelligent Sensor Technology Co. Ltd., Japan). The system was equipped with five specific sensor probes for detecting sourness (CA0), saltiness (CT0), bitterness (C00), sweetness (GL1), and umami (AAE). Samples were tested at concentrations of 0.1 mg/mL and 1.0 mg/mL. Prior to experiments, sensors were activated by immersion in a reference solution (30 mM KCl and 0.3 mM tartaric acid) for 24 h. A 30 min self-diagnostic procedure was performed before each measurement to ensure data accuracy. The reference solution served both as a cleaning solution and standard solution for taste signal calibration. According to the manufacturer’s instructions, using the reference solution as baseline, the detection thresholds were set at −13 for sourness, −6 for saltiness, and 0 for other taste modalities. Two cleaning solutions were employed for electrode maintenance: (1) 30% ethanol solution containing 100 mM HCl for negative charge reference electrodes, and (2) 30% ethanol solution containing 100 mM KCl and 10 mM KOH for positive charge reference electrodes. All taste measurements were performed at room temperature with four replicates, except for sweetness which was measured five times. The first measurement data were excluded from analysis.

[3] = tested on: human pancreatic ductal epithelial cells (HPNE)
[4] = tested on: human umbilical vein endothelial cells (HUVEC)
[5] = tested on: human embryonic kidney cells (HEK293T)

| Substance | Average cell viability, BEAS-2B [1] | Cell viability, BEAS-2B, Data1 [1] | Cell viability, BEAS-2B, Data2 [1] | Cell viability, BEAS-2B, Data3 [1] | Umami ([2]; peptide 0.1 mg/mL) | Umami ([2]; peptide 1 mg/mL) | Bitter ([2]; sensor C00, peptide 0.1 mg/mL) | Bitter ([2]; sensor C00, peptide 1 mg/mL) | Sour ([2]; sensor CA0, peptide 0.1 mg/mL) | Sour ([2]; sensor CA0, peptide 1 mg/mL) | Salty ([2]; sensor CT0, peptide 0.1 mg/mL) | Salty ([2]; sensor CT0, peptide 1 mg/mL) | Sweet ([2]; sensor GL1, peptide 0.1 mg/mL) | Sweet ([2]; sensor GL1, peptide 1 mg/mL) | Average cell viability, HPNE [3] | Cell viability, HPNE, Data1 [3] | Cell viability, HPNE, Data2 [3] | Cell viability, HPNE, Data3 [3] | Average cell viability, HUVEC [4] | Cell viability, HUVEC, Data1 [4] | other results |
| --- | --- | --- | --- | --- | --- | --- | --- | --- | --- | --- | --- | --- | --- | --- | --- | --- | --- | --- | --- | --- | --- |
| AEDNSL [TaPep43] | 108.94 | 119.14 | 93.72 | 113.96 | 1.07 | -5.11 | 7.83 | 4.00 | -1.87 | 12.46 | -20.35 | 7.60 | 5.59 | -3.45 | 110.25 | 117.40 | 99.83 | 113.51 | 103.73 | 104.42 | Cell viability, HUVEC, Data2 [4]: 115.43; Cell viability, HUVEC, Data3 [4]: 91.33; Average cell viability, HEK293T [5]: 98.86; Cell viability, HEK293T, Data1 [5]: 96.72; Cell viability, HEK293T, Data2 [5]: 102.11; Cell viability, HEK293T, Data3 [5]: 97.76 |
| AGDAW [TaPep30] | 116.78 | 115.45 | 115.55 | 119.34 | 1.69 | -4.59 | 7.53 | 3.18 | -3.43 | 12.02 | -20.28 | 11.18 | 5.66 | -6.46 | 103.96 | 100.43 | 106.72 | 104.73 | 102.13 | 114.08 | Cell viability, HUVEC, Data2 [4]: 97.39; Cell viability, HUVEC, Data3 [4]: 94.92; Average cell viability, HEK293T [5]: 110.47; Cell viability, HEK293T, Data1 [5]: 112.62; Cell viability, HEK293T, Data2 [5]: 114.23; Cell viability, HEK293T, Data3 [5]: 104.57 |
| AKDEKEL [TaPep1] | 108.54 | 105.88 | 114.46 | 105.28 | 2.15 | -3.64 | 10.96 | 3.53 | -4.53 | 9.07 | -19.14 | 13.72 | 6.22 | -3.13 | 94.74 | 92.35 | 92.15 | 99.73 | 97.71 | 96.99 | Cell viability, HUVEC, Data2 [4]: 94.60; Cell viability, HUVEC, Data3 [4]: 101.54; Average cell viability, HEK293T [5]: 101.23; Cell viability, HEK293T, Data1 [5]: 110.16; Cell viability, HEK293T, Data2 [5]: 98.99; Cell viability, HEK293T, Data3 [5]: 94.54 |
| ANGPE [TaPep69] | 106.78 | 116.65 | 94.82 | 108.87 | 1.23 | -4.62 | 7.32 | 3.75 | -2.38 | 11.54 | -19.29 | 9.06 | 5.65 | -4.24 | 101.93 | 107.52 | 97.94 | 100.33 | 102.58 | 91.72 | Cell viability, HUVEC, Data2 [4]: 108.65; Cell viability, HUVEC, Data3 [4]: 107.37; Average cell viability, HEK293T [5]: 99.97; Cell viability, HEK293T, Data1 [5]: 100.13; Cell viability, HEK293T, Data2 [5]: 102.30; Cell viability, HEK293T, Data3 [5]: 97.48 |
| APEELDA [TaPep36] | 102.92 | 111.17 | 103.39 | 94.22 | 0.55 | -6.54 | 7.85 | 3.11 | -0.61 | 17.06 | -18.92 | 13.68 | 5.62 | -8.13 | 113.58 | 114.11 | 111.61 | 115.01 | 101.78 | 93.96 | Cell viability, HUVEC, Data2 [4]: 95.80; Cell viability, HUVEC, Data3 [4]: 115.59; Average cell viability, HEK293T [5]: 103.41; Cell viability, HEK293T, Data1 [5]: 103.44; Cell viability, HEK293T, Data2 [5]: 102.11; Cell viability, HEK293T, Data3 [5]: 104.67 |
| AQDDLP [TaPep20] | 101.76 | 114.06 | 96.91 | 94.32 | 1.29 | -4.77 | 7.24 | 3.35 | -2.48 | 11.76 | -21.79 | 6.62 | 5.13 | -4.17 | 110.18 | 113.51 | 117.20 | 99.83 | 100.19 | 93.96 | Cell viability, HUVEC, Data2 [4]: 106.73; Cell viability, HUVEC, Data3 [4]: 99.87; Average cell viability, HEK293T [5]: 99.56; Cell viability, HEK293T, Data1 [5]: 100.69; Cell viability, HEK293T, Data2 [5]: 99.18; Cell viability, HEK293T, Data3 [5]: 98.80 |
| AQKQE [TaPep53] | 99.50 | 92.92 | 110.37 | 95.21 | 2.86 | -3.47 | 7.88 | 2.74 | -6.36 | 8.92 | -19.95 | 13.59 | 9.02 | -4.92 | 100.53 | 111.51 | 101.33 | 88.75 | 99.25 | 90.21 | Cell viability, HUVEC, Data2 [4]: 95.96; Cell viability, HUVEC, Data3 [4]: 111.60; Average cell viability, HEK293T [5]: 96.06; Cell viability, HEK293T, Data1 [5]: 101.55; Cell viability, HEK293T, Data2 [5]: 93.50; Cell viability, HEK293T, Data3 [5]: 93.12 |
| AQSSLS [TaPep40] | 101.16 | 116.45 | 94.02 | 93.02 | 2.37 | -3.91 | 7.48 | 3.31 | -5.48 | 10.99 | -19.59 | 10.09 | 10.64 | -5.29 | 106.99 | 100.53 | 109.02 | 111.41 | 101.30 | 102.66 | Cell viability, HUVEC, Data2 [4]: 110.88; Cell viability, HUVEC, Data3 [4]: 90.37; Average cell viability, HEK293T [5]: 100.57; Cell viability, HEK293T, Data1 [5]: 103.15; Cell viability, HEK293T, Data2 [5]: 101.26; Cell viability, HEK293T, Data3 [5]: 97.29 |
